{"source": "patent US20260284044A1", "about": "“PHARMACEUTICAL COMPOSITIONS OF VARENICLINE AND PROCESS THEREOF” (TENSHI KAIZEN L PRIVATE LIMITED, priority 2023, published 2026)", "key": {"[1]": {"details": "FDA, cited from earlier work"}, "[2]": {"experiment": "N-nitroso varenicline content of API and tablets, initial and on stability storage", "type": "physicochemical"}}}
{"compound": "O=NN1CC2CC(C1)c1cc3nccnc3cc12", "note": "[N-nitroso-varenicline]", "values": [{"measurement": "Intake limit considered reasonably safe for humans", "setting": "[1]; based on lifetime exposure", "result": 37, "unit": "nanograms per day"}, {"measurement": "Interim acceptable intake limit", "setting": "[1]; interim limit for distribution in the US", "result": "≤ 185", "unit": "ng per day"}]}
{"compound": "(2R,3R)-2,3-dihydroxybutanedioic acid;5,8,14-triazatetracyclo [10.3.1.02,11.04,9]hexadeca-2,4,6,8,10-pentaene [Varenicline API]", "values": [{"measurement": "Results (nitroso varenicline)", "setting": "[2]; Batch API (EL-01-A179-2001003), limit NMT 18.5 ppm", "result": "Less than 2 ppm"}, {"measurement": "Initial (ppm) (N-nitroso varenicline)", "setting": "[2]; Orally disintegrating tablets 1 mg and API, initial data", "result": 1.73, "unit": "ppm"}]}
